Test: Stability experiment for the addition of tri-n-butylamine: sealed storage at 40-50° C., content (purity) by 1H-NMR
Assay type: physicochemical
Experimental: From the point of view of securing storage stability, for the amount of the first tertiary amine added, at least 2.0 mol % is added based on Compound (6), preferably at least 3.0 mol %, more preferably at least 4.0 mol %, and even more preferably at least 5.0 mol %. Note that evaluation of storage stability can be carried out by calculation of peak area derived from Compound (6) by gas chromatography or high performance liquid chromatography or calculation of integration value by 1H-NMR or P-NMR measurement before and after storage.
Potassium di-tert-butyl phosphate (6 g), dipotassium hydrogenphosphate (16.6 g), tetrabutylammonium hydrogen sulfate (0.81 g), tert-butyl methyl ether (28 mL) and water (21 mL) were added in a 100 mL two-neck round bottom flask equipped with a thermometer, and stirred under cooling with a water bath. At an internal temperature of 21° C., a solution of chloromethyl chlorosulfonate (5.88 g) dissolved in tert-butyl methyl ether (5.88 mL) was added dropwise over two hours at an internal temperature of 25° C. or lower. After termination of the drop wise addition, the solution was stirred for two hours, water (21 mL) and tert-butyl methyl ether (28 mL) were added thereto, the lower layer was separated and the organic layer was washed with an aqueous solution of 2M dipotassium hydrogen phosphate (21 mL). After washing twice with water (21 mL), bath temperature was set to 35° C., and the solution was concentrated under a reduced pressure to obtain 5.38 g of the title compound (yield: 86%). […]
As a result, contents (purity) of respectively 92% and 96% prior to storage were 89% and 70% after sealed storage at 40° C. for 12 hours and further at 50° C. for 12 hours, and were 87% and 0% (completely degraded) after sealed storage further at 50° C. for 10 hours, such that the one added with tri-n-butylamine was stable. The content (purity) was calculated by 1H-NMR measurements with 4-thiomethyl acetophenone as internal standard substance.

SMILES: CC(C)(C)OP(=O)(OCCl)OC(C)(C)C [Not added, di-tert-butyl chloromethyl phosphate]
- Content (%) (Initial (prior to storage)): 96%
- Content (%) (Sealed storage at 40° C. for 12 hours then further at 50° C. for 12 hours): 70%
- Content (%) (Sealed storage further at 50° C. for 10 hours (after 40° C. 12 hours and 50° C. 12 hours)): 0%

From patent publication US20100094001A1, “C[…]-IMPROVED CH[…] DERIVATIVE AND PROCESS FOR PRODUCING SAME” (Eisai R&D Management Co., Ltd., priority 2007, published 2010)
